In DBAASP:
Converted amounts (≈) assume the structure as drawn. “And” between values parts separate entries of the source, which are not always exact repeats. Equal values may be shown once.

Experiments:
Assay in all cases: ≥ marks a high value that may be exact or a test limit, other limits are often not marked, values filed in µg/mL are converted to µM
[1] = system: Alcaligenes faecalis ATCC 8750
[2] = system: Bacillus subtilis ATCC 6633
[3] = system: Bacillus subtilis CCT 2471
Bacillus thuringiensis = system: Bacillus thuringiensis
Candida albicans MDM8 = system: Candida albicans MDM8
Candida albicans = system: Candida albicans
[4] = system: Escherichia coli ATCC 25922
[5] = system: Escherichia coli CCT 1371
Escherichia coli SBS 363 = system: Escherichia coli SBS 363
[6] = system: Klebsiella pneumoniae ATCC 13883
Micrococcus luteus A270 = system: Micrococcus luteus A270
[7] = system: Pseudomonas aeruginosa ATCC 27853
[8] = system: Salmonella enterica subsp. arizonae ATCC 13314
[9] = system: Staphylococcus aureus CCT 6538
[10] = system: Staphylococcus saprophyticus
Candida albicans 820 = system: Candida albicans 820
Escherichia coli ML-35p = system: Escherichia coli ML-35p
[11] = system: Listeria monocytogenes EGD

Row | MIC [1] | MIC [2] | MIC [3] | MIC (Bacillus thuringiensis) | MIC (Candida albicans MDM8) | MIC (Candida albicans) | MIC [4] | MIC [5] | MIC (Escherichia coli SBS 363) | MIC [6] | MIC (Micrococcus luteus A270) | MIC [7] | MIC [8] | MIC [9] | MIC [10] | MIC (Candida albicans 820) | MIC (Escherichia coli ML-35p) | MIC [11] | Compound
1 | ≥ 40 µM | 6.2 µM (≈ 7.78 µg/mL) | 8 µM (≈ 10 µg/mL) | 20 µM (≈ 25.1 µg/mL) | 0.8 µM (≈ 1 µg/mL) | 20 µM (≈ 25.1 µg/mL) | 40 µM (≈ 50.2 µg/mL) | 20 µM (≈ 25.1 µg/mL) | 1.6 µM (≈ 2.01 µg/mL) | ≥ 40 µM | 0.8 µM (≈ 1 µg/mL) | 1.6 µM (≈ 2.01 µg/mL) | 25 µM (≈ 31.4 µg/mL) | 4 µM (≈ 5.02 µg/mL) | 20 µM (≈ 25.1 µg/mL) | – | – | – | CC[C@H](C)[C@H](NC(=O)[C@H](CC(C)C)NC(=O)[C@H](CO)NC(=O)[C@H](CC(C)C)NC(=O)[C@H](CC(C)C)NC(=O)[C@@H](N)CO)C(=O)N[C@@H](CCCN=C(N)N)C(=O)N[C@@H](CCCCN)C(=O)N[C@@H](CC(C)C)C(=O)N[C@H](C(=O)N[C@H](C(N)=O)[C@@H](C)O)[C@@H](C)CC [SLLSLIRKLIT]
2 | – | – | – | – | – | – | – | – | – | – | – | – | – | – | – | 2.3 µM and 4.5 µM | 1.6 µM and 3.5 µM | 1.3 µM and 1.8 µM | CC[C@H](C)[C@@H]1NC(=O)[C@H](CCCN=C(N)N)NC(=O)[C@@H]2CSSC[C@@H]3NC(=O)[C@H](C(C)C)NC(=O)CNC(=O)[C@H](Cc4ccccc4)NC(=O)[C@H](Cc4ccc(O)cc4)NC(=O)[C@H](C(C)C)NC(=O)[C@H](CCC(=O)O)NC(=O)[C@H](CC(C)C)NC(=O)CNC(=O)[C@H](CC(C)C)NC(=O)[C@H](CSSC[C@H](NC(=O)[C@H](CCCN=C(N)N)NC(=O)[C@H](CCCN=C(N)N)NC(=O)[C@H](C)NC(=O)[C@H](CC(C)C)NC(=O)[C@H](CCCN=C(N)N)NC(=O)CNC(=O)[C@H](Cc4cnc[nH]4)NC(=O)[C@H](CC(C)C)NC(=O)[C@H](Cc4ccccc4)NC3=O)C(=O)N[C@H](C(=O)N[C@@H](CCCN=C(N)N)C(=O)O)CSSC[C@H](NC(=O)[C@@H](NC(=O)[C@H](CCCN=C(N)N)NC(=O)[C@@H](N)CCCN=C(N)N)[C@@H](C)CC)C(=O)N[C@@H](CCCN=C(N)N)C(=O)N2)NC(=O)[C@H](CCCN=C(N)N)NC(=O)CNC1=O [RRICRCRIGRCLGLEVYFGVCFLHGRLARRCCR]
